Laboratory results reported in US6730792B2, “β3 adrenergic agonists” (Eli Lilly and Company, priority 2000, dated 2004).

Molecular target: T1, human β3 adrenergic receptor (Homo sapiens, UniProt P13945)
T1 construct: expressed in transfected cells; host or cells: DXB-11 Chinese hamster ovary (CHO) cell line, stably transfected (phd expression vector)
Experiment: whole cell receptor coupled c-AMP assay, human β3 receptor in CHO cells (EC50, Emax relative to isoproterenol)
Type: cell-based
Text: The genes encoding the human β1-adrenergic receptor (Frielle et al., Proc. Natl. Acad. Sci., 84:7920-7924, 1987), the human β2-adrenergic receptor (Kobika et al., Proc. Natl. Acad. Sci., 84:46-50, 1987, Emorine et al., Proc. Natl. Acad. Sci., 84:6995-6999, 1987) and the human β3 adrenergic receptor (Granneman et al., Molecular Pharmacology, 44(2):264-70, 1993) are individually subcloned into a phd expression vector (Grinnell et al., Bio/Technology, 5:1189-1192, 1987) and transfected into the DXB-11 Chinese hamster ovary (CHO) cell line by calcium phosphate precipitation methodology. The stably transfected cells are grown to 95% confluency in 95% Dulbecco's modified Eagles Medium (DMEM), 5% fetal bovine serum and 0.01% proline. Media is removed and the cells are washed with phosphate buffered (pH 7.4) saline (without magnesium and calcium). Cells are then lifted using an enzyme free cell dissociation solution (Specialty Media, Lavallette, N.J.) and pelleted by centrifugation.
Cells from each of the above cell lines are resuspended and added (20,000/well) to a 96-well plate. Cells are incubated at 37° C. with representative compounds of the invention for 20 minutes in buffer (Hank's balanced salt solution, 10 mM HEPES, 0.1% BSA, 1 mM L-ascorbic acid, 0.2% dimethyl sulfoxide, 1 mm 3-isobutyl-1-methylxanthine, pH 7.4). After halting the incubation with quench buffer (50 mM Na Acetate, 0.25% Triton X-100, pH 5.8), the c-AMP level is quantified by scintillation proximity assay (SPA) using a modification of the commercially available c-AMP kit (Amersham, Arlington Heights, Ill.) with rabbit anti-cAMP antibody (ICN Biomedicals, Aurora, Ohio) for the kit.
Sigmoidal dose response curves, from the whole cell receptor coupled c-AMP assay are fit to a four parameter logistic equation using non linear regression: y=(a−d)/(1+(Dose/c)^b)+d where a and d are responses at zero and maximal dose, b is the slope factor and c is the EC50 as previously described (DeLean et al., Am. J. Physiol., 235, E97-E102, 1978). EC50 is assessed as the concentration producing 50% of the maximum response to each agonist.
Isoproterenol is accepted in the art as a non-selective β3 agonist and is widely used as a comparator in evaluating the activity of compounds. See Trends in Pharm. Sci., 15:3, 1994. The % intrinsic activity (Emax) of representative compounds of the invention is assessed relative to isoproterenol by the compound's maximal response divided by the isoproterenol maximal response times 100.

[1] = Emax ± standard error of the mean, average of at least 3 runs except where n = 1, compound tested in the isolated form listed
[2] = % intrinsic activity relative to isoproterenol maximal response, average of at least 3 runs, c-AMP in transfected CHO cells
[3] = Emax ± SEM, average of at least 3 runs except as otherwise indicated, tested as the isolated form listed

T1 sequence (P13945 whole entry): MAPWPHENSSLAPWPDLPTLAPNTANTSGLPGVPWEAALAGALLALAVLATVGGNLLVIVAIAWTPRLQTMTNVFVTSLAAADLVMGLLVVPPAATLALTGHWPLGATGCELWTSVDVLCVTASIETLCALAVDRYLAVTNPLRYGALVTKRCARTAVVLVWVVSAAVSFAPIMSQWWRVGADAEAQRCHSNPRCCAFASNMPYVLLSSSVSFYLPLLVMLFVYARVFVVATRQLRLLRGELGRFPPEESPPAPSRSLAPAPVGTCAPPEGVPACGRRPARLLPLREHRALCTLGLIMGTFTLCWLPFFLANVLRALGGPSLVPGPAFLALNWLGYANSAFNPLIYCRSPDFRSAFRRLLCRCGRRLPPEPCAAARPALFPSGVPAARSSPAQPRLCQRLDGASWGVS

Row | SMILES | Emax (%) ± SEM [1] | other results
1 | COC(=O)c1ccc(Oc2ccc(CC(C)(C)NC[C@H](O)COc3ccccc3-c3ccn[nH]3)cc2)c(Cl)c1 [Example 142] | 20.2 n = 1% | –
2 | CC(C)(Cc1ccc(Oc2ccc(C#N)cc2F)cc1)NC[C@H](O)COc1ccccc1-c1ccno1.O=C(O)C(F)(F)F [Example 189] | 35.1 ± 5.2% | –
3 | CC(C)(Cc1ccc(Oc2ccc(C#N)s2)cc1)NC[C@H](O)COc1ccccc1-c1cscn1.Cl [Example 258] | 48.4 ± 5.6% | –
4 | CC(C)(Cc1ccc(Oc2ccc(C(N)=O)cn2)cc1)NC[C@H](O)COc1cccc(-c2ccno2)c1 [Example 35] | 28.9 n = 1% | –
5 | COC(=O)c1ccc(Oc2ccc(CC(C)(C)NC[C@H](O)COc3ccccc3-c3cccs3)cc2)nc1 [Example 115] | 61.9 ± 7.0% | –
6 | COC(=O)c1ccc(Oc2ccc(CC(C)(C)NC[C@H](O)COc3ccccc3-c3ccn(C)n3)cc2)nc1 [Example 114] | 56.6 n = 1% | –
7 | CC(C)(Cc1ccc(Oc2ncccc2C(N)=O)cc1)NC[C@H](O)COc1ccccc1-c1cscn1.Cl [Example 240] | 65.7 ± 3.8% | –
8 | CC(C)(Cc1ccc(Oc2ccc(S(C)(=O)=O)cc2)cc1)NC[C@H](O)COc1ccccc1-c1cscn1.Cl [Example 249] | 35.9 ± 2.9% | –
9 | CC(C)(Cc1ccc(Oc2ncccc2C#N)cc1)NC[C@H](O)COc1ccccc1-c1cc2ccccc2o1 [Example 371] | – | Emax (%) ± SEM [2]: 38.9 ± 3.9%
10 | CC(C)(Cc1ccc(Oc2ccc(C#N)cc2F)cc1)NC[C@H](O)COc1ccccc1-c1cccs1.O=C(O)C(F)(F)F [Example 187] | 45.1 ± 1.5% | –
11 | CC(C)(Cc1ccc(Oc2ccc(S(C)(=O)=O)cc2)cc1)NC[C@H](O)COc1ccccc1-c1ccoc1.Cl [Example 304] | – | Emax (%) ± SEM [3]: 44.8 ± 4.9%
12 | CC(C)(Cc1ccc(Oc2ccc(C(N)=O)cn2)cc1)NC[C@H](O)COc1ccccc1N1CCCCC1.Cl.Cl [Example 24] | 17.3 ± 3.2% | –
13 | CC(C)(Cc1ccc(Oc2ccc(C(N)=O)cn2)cc1)NC[C@H](O)COc1ccccc1-c1cc2ccccc2o1 [Example 370] | – | Emax (%) ± SEM [2]: 40.3 ± 2.8%
14 | CC(C)(Cc1ccc(Oc2cccnc2C(N)=O)cc1)NC[C@H](O)COc1ccccc1-c1cccs1.O=C(O)C(F)(F)F [Example 196] | 74.4 ± 3.3% | –
15 | CC(C)(Cc1ccc(Oc2ccc(C#N)cn2)cc1)NC[C@H](O)COc1ccccc1-c1cccs1 [Example 5] | 66.1 ± 4.8% | –
16 | CC(C)(Cc1ccc(Oc2ccc(C(N)=O)nc2)cc1)NC[C@H](O)COc1ccccc1-c1cccs1.O=C(O)C(F)(F)F [Example 205] | 70.3 ± 0.3% | –
17 | Cc1ccc(-c2cccc(F)c2OC[C@@H](O)CNC(C)(C)Cc2ccc(Oc3ccc(C#N)cn3)cc2)s1.Cl [Example 427] | – | Emax (%) ± SEM [2]: 72.4 ± 6.9%
18 | CC(C)(Cc1ccc(Oc2ccc(C#N)cn2)cc1)NC[C@H](O)COc1ccccc1N1CCCC1=O [Example 11] | 18.0 ± 6.5% | –
19 | CC(C)(Cc1ccc(Oc2ncccc2C#N)cc1)NC[C@H](O)COc1ccc(-c2ccno2)cc1.O=C(O)C(F)(F)F [Example 62] | 24.7 ± 5.2% | –
20 | COC(=O)c1ccc(Oc2ccc(CC(C)(C)NC[C@H](O)COc3ccccc3-c3ccno3)cc2)nc1 [Example 117] | 32.2 ± 6.5% | –
21 | CC(C)(Cc1ccc(Oc2ccc(C#N)cn2)cc1)NC[C@H](O)COc1c(F)cccc1-c1ccco1.Cl [Example 430] | – | Emax (%) ± SEM [2]: 77.4 ± 9.0%
22 | CC(C)(Cc1ccc(Oc2ccc(C(N)=O)cn2)cc1)NC[C@H](O)COc1ccccc1-c1ccncc1 [Example 374] | – | Emax (%) ± SEM [2]: 49.3 ± 0.3%
23 | CC(C)(Cc1ccc(Oc2nc(Cl)c(Cl)cc2Cl)cc1)NC[C@H](O)COc1ccccc1-c1nccs1.O=C(O)C(F)(F)F [Example 157] | 73.3 ± 6.6% | –

Row | SMILES | Emax (%) ± SEM [1] | other results
24 | CC(C)(Cc1ccc(Oc2ccc(C#N)cn2)cc1)NC[C@H](O)COc1ccccc1-c1ccc(Cl)s1.O=C(O)C(F)(F)F [Example 406] | – | Emax (%) ± SEM [2]: 55.8 ± 7.1%
25 | CC(C)(Cc1ccc(Oc2ccc(S(N)(=O)=O)cc2F)cc1)NC[C@H](O)COc1ccccc1-c1cccs1.O=C(O)C(F)(F)F [Example 225] | 59.5 ± 4.3% | –
26 | CC(C)(Cc1ccc(Oc2ncccc2C(N)=O)cc1)NC[C@H](O)COc1ccccc1-c1nncs1.O=C(O)C(=O)O [Example 97] | 52.4 ± 0.8% | –
27 | CC(=O)c1ccc(-c2ccccc2OC[C@@H](O)CNC(C)(C)Cc2ccc(Oc3ccc(S(C)(=O)=O)cc3)cc2)s1.Cl [Example 394] | – | Emax (%) ± SEM [2]: 76.9 ± 5.0%
28 | CC(C)(Cc1ccc(Oc2ccccn2)cc1)NC[C@H](O)COc1ccccc1-c1ccno1.O=C(O)C(F)(F)F [Example 2] | 43.6 ± 9.7% | –
29 | CC(C)(Cc1ccc(Oc2cccc(Cl)n2)cc1)NC[C@H](O)COc1ccccc1-c1nccs1.O=C(O)C(F)(F)F [Example 176] | 57.0 ± 7.6% | –
30 | CC(C)(Cc1ccc(Oc2cccnc2C#N)cc1)NC[C@H](O)COc1ccccc1-n1cccc1.Cl [Example 268] | 54.6 ± 8.2% | –
31 | CC(C)(Cc1ccc(Oc2ccc(C#N)o2)cc1)NC[C@H](O)COc1ccccc1-c1nccs1.O=C(O)C(F)(F)F [Example 330] | – | Emax (%) ± SEM [3]: 55.9 ± 2.8%
32 | CC(C)(Cc1ccc(Oc2cccnc2C(N)=O)cc1)NC[C@H](O)COc1ccccc1-c1cscn1.Cl [Example 242] | 55.9 ± 4.0% | –
33 | CC(C)(Cc1ccc(Oc2ncccc2Cl)cc1)NC[C@H](O)COc1ccccc1-c1cccs1.O=C(O)C(F)(F)F [Example 178] | 64.4 ± 5.2% | –
34 | CC(C)(Cc1ccc(Oc2ccc(C#N)cn2)cc1)NC[C@H](O)COc1c(F)cccc1-c1ccsc1.Cl [Example 426] | – | Emax (%) ± SEM [2]: 61.0 ± 7.1%
35 | CC(C)(Cc1ccc(Oc2ncccc2C(N)=O)cc1)NC[C@H](O)COc1ccccc1-c1ccnc(N)n1 [Example 90] | 31.5 ± 2.8% | –
36 | CC(C)(Cc1ccc(Oc2ccc(C(F)(F)F)cc2Cl)cc1)NC[C@H](O)COc1ccccc1-c1nccs1.O=C(O)C(F)(F)F [Example 171] | 47.9 ± 6.5% | –
37 | CC(C)(Cc1ccc(Oc2ccc(C(N)=O)cc2F)cc1)NC[C@H](O)COc1ccccc1-c1ccno1.O=C(O)C(F)(F)F [Example 192] | 40.3 ± 6.9% | –
38 | Cn1ccc(-c2ccccc2OC[C@@H](O)CNC(C)(C)Cc2ccc(Oc3ncccc3C(N)=O)cc2)n1 [Example 15] | 70.9 ± 3.0% | –
39 | CC(C)(Cc1ccc(Oc2ccc(Cl)cn2)cc1)NC[C@H](O)COc1ccccc1-c1cccs1.O=C(O)C(F)(F)F [Example 167] | 57.3 ± 3.5% | –
40 | CC(C)(Cc1ccc(Oc2ccc(C(N)=O)cn2)cc1)NC[C@H](O)COc1ccccc1C1=CC(=O)OC1.Cl [Example 41] | 33.5 ± 4.2% | –
41 | Cc1ccc(-c2ccccc2OC[C@@H](O)CNC(C)(C)Cc2ccc(Oc3ccc(C#N)cn3)cc2)s1.Cl [Example 405] | – | Emax (%) ± SEM [2]: 64.4 ± 7.1%
42 | CC(C)(Cc1ccc(Oc2cccc(Cl)c2C#N)cc1)NC[C@H](O)COc1ccccc1-c1cscn1.Cl [Example 245] | 56.1 ± 2.9% | –
43 | Cn1ccc(-c2ccccc2OC[C@@H](O)CNC(C)(C)Cc2ccc(Oc3ccc(C(N)=O)cn3)cc2)n1 [Example 67] | 77.4 n = 1% | –
44 | CC(C)(Cc1ccc(Oc2ncccc2C#N)cc1)NC[C@H](O)COc1ccccc1-c1cccs1 [Example 50] | 78.9 ± 2.5% | –
45 | CC(=O)c1ccc(-c2ccccc2OC[C@@H](O)CNC(C)(C)Cc2ccc(Oc3ncccc3C#N)cc2)s1.O=C(O)C(F)(F)F [Example 415] | – | Emax (%) ± SEM [2]: 80.6 ± 5.7%
46 | CCOC(=O)c1ccc(Oc2ccc(CC(C)(C)NC[C@H](O)COc3ccccc3-c3ccno3)cc2)c(Cl)c1.O=C(O)C(F)(F)F [Example 288] | 52.9 ± 7.4% | –
